Laboratory results published in patent publication US6326526A, “Melatonin receptor-deficient mice and uses thereof” (Bristol-Myers Squibb Company, priority 2000, dated 2001).

Columns and labels:
[1] = tested on: SCN slices from wild-type mice (multiunit activity); experiment: SCN multiunit recordings, melatonin-induced inhibition of neuronal firing, wild-type mice; format: cell-based, mouse
Experimental: (§1) Adult male wild-type and homozygous mutant mice were housed in LD 12:12 for a minimum of three weeks prior to experimentation. After the adaptation period, the mice were killed 2.0 to 4.5 hours after lights-on, and brains were rapidly dissected and placed into ACSF medium containing 116.3 mM NaCl, 5,4 mM KCl, 1.0 mM NaH2 PO4, 26.2 mM NaHCO3, 1.8 mM CaCl2, 0.8 mM MgSO4, 24.6 mM dextrose, and 5 mg/l Gentamicin sulphate, pH 7.5. A block of tissue containing the hypothalamus was dissected from the brain and transferred to a manual tissue chopper where coronal hypothalamic brain slices (400 μm in thickness) containing the SCN were prepared. Slices were placed in a Haas-type brain slice chamber (Haas H. L., et al., J. Neurosci. Methods 1:323-325, 1979; Medical Systems Corp.) and gauze strips placed over the slices in the vicinity of the SCN to raise the fluid level above the slices. They were continually superfused with ACSF medium warmed to 37° C. To record multiple-unit SCN electrical activity, a 76 μm-diameter, teflon-coated platinum-iridium wire electrode was lowered into the brain slice in the SCN (Bouskila, Y., and Dudek, F. E., Proc. Natl. Acad. Sci. USA 90:3207-3210, 1993). This electrical activity was amplified, and the number of electrical events was counted with a window discriminator (Fintronics Inc., Orange, Conn.). Data were collected and analyzed by computer, using Brainwave™ (Data Waver Technologies, Broomfield, Colo.) or Spike 2™ (Cambridge Electronic Design, Cambridge, Mass.) software. The average number of electrical events in successive 1-minute intervals was determined and plotted against the circadian time of recording. Slices were excluded if their viability was compromised on day 2 of recording.
Melatonin was prepared as a 100 μM stock solution in 100% ethanol, which was serially diluted with ACSF medium to yield four melatonin concentrations between 0.1 and 100 nM. A stock solution of vehicle (100% ethanol) was serially diluted with ACSF medium to yield the corresponding vehicle for each melatonin concentration. Melatonin or vehicle was applied by gravity flow in the bath for 30 minutes at each concentration before switching to the next solution. […] In the mouse experiments at circadian time 4.5-6.5 where only the single highest vehicle concentration was used as a comparator, the vehicle was applied for 30 minutes prior to the application of melatonin. A programmable automatic solution switching system (AutoMate Scientific Inc., Oakland, Calif.) was employed to time solution applications.
(§2) The maximum percent inhibition of SCN neuronal firing during each 30 minutes application of melatonin or vehicle was calculated with respect to the average multiunit firing rate during the 5 minute period prior to the first application of a series, and plotted.

[2] = tested on: SCN slices from Mel1a receptor-deficient (homozygous mutant) mice (multiunit activity); details: 0.1 to 100 nM, CT 9.5-11.5 and CT 4.5-6.5, relative to vehicle
Experimental: as §1, with “Slices were placed in a Haas-type brain slice chamber (Haas H. L., et al., J. Neurosci. Methods 1:323-325, 1979; Medical Systems Corp.) and gauze strips placed over the slices in the vicinity of the SCN to raise the fluid level above the slices. They were continually superfused with ACSF medium warmed to 37° C. To record multiple-unit SCN electrical activity, a 76 μm-diameter, teflon-coated platinum-iridium wire electrode was lowered into the brain slice in the SCN (Bouskila, Y., and Dudek, F. E., Proc. Natl. Acad. Sci. USA 90:3207-3210, 1993).” left out, “Slices were excluded if their viability was compromised on day 2 of recording.” left out
as §2

[3] = tested on: SCN slices from wild-type mice (single-unit electrical activity rhythm); experiment: SCN single unit recordings, phase shift of electrical activity rhythm, wild-type mice; format: cell-based, mouse
Experimental: (§3) Mice were housed in LD 12:12 for three weeks prior to experimentation. After adaptation, mice were killed by decapitation during the light phase of the LD cycle. Hypothalamic slices (500 μm) were prepared using a tissue chopper and incubated at 37° C., as previously described (Liu, C., and Gillette, M. U., J. Neurosci. 16:744-751, 1996). For most experiments, perfusion was discontinued during the 1-hour treatment with melatonin or vehicle (0.0001% ethanol in perfusion medium). For the pertussis toxin experiment, perfusion was discontinued for 6 hours, ending after the vehicle or melatonin treatment. At the end of treatment, the medium in the chamber was replaced, and perfusion was resumed with melatonin-free medium. Single units from the SCN were recorded the following day with glass microelectrodes (Liu, C., and Gillette, M. U., J. Neurosci. 16:744-751, 1996). Signals were amplified, filtered to a band width of 0.3-3 kHz, and stored (MacADIO II, GW Instruments, Somerville, Mass.). Voltage pulses exceeding preset recording threshold were detected on-line by custom software. Off-line analysis assigned a cluster of spikes of similar amplitude and width to each unit recorded (Meister, M., et al., J. Neurosci. Methods 51:95-101, 1994). Firing rate data were analyzed as previously described to determine the time-of-peak in the activity rhythm (Liu, C., and Gillette, M. U., J. Neurosci. 16:744-751, 1996).

[4] = tested on: SCN slices from Mel1a receptor-deficient (homozygous mutant) mice (single-unit electrical activity rhythm); experiment: SCN single unit recordings, phase shift of electrical activity rhythm, Mel1a receptor-deficient mice; format: cell-based, mouse
Experimental: as §3

[5] = tested on: rat SCN single-unit activity rhythm; details: rats; read-out: EC50 of phase-shifting effect on the single-unit activity rhythm; cited from earlier work

In the case of COc1ccc2[nH]cc(CCNC(C)=O)c2c1 [melatonin], the inhibition at 0.001 µM ([1]; Mus musculus, 1 nM, at night CT 18, wild-type C57BL/6 mice, n=8) is reported as 33.9 ± 3.9%, the EC50 ([1]; Mus musculus, 0.1-100 nM, 30 min each, CT 4.5-6.5, day 2 in culture) is reported as 412 pM and the “Percent inhibition of SCN firing rate” value ([1]; increasing melatonin 0.1-100 nM, CT 4.5-6.5 of day 2 (FIG. 4A)) is reported as “over 30%”. For the same compound, the “Percent inhibition of SCN firing rate” value ([1]; melatonin 0.1-100 nM, CT 9.5-11.5 of day 1, plateau (FIG. 4B)) was “about 13%”, the “Inhibition of SCN multiunit activity” value [2] was “unable to significantly inhibit SCN multiunit activity” and the “Phase advance in circadian phase” value ([3]; application at CT 9.5-10.5, preliminary studies of wildtype mice) was “approximately 4 hour”. The “Phase shift in the electrical activity rhythm” value ([3]; application from CT 5.5-6.5) was “did not elicit significant phase shifts”, the “CT of activity peak” value ([3]; application from CT 5.5-6.5, n=3) was 6.8 ± 0.3 h and the “Circadian time of the activity peak” value [4] was 6.6 ± 0.1 h. For the same compound, the “Phase of the firing rhythm peak” value [4] was “not shifted”, the “Phase shift (phase advance) in the electrical activity rhythm peak” value ([4]; 1 nM, CT 9.5-10.5) was “approximately 4 hour” and the “Phase advance in circadian phase” value ([4]; 1 nM, CT 9.5-10.5, after 5-hour static bath of normal medium, n=3) was 3.2 ± 0.1 h. For the same compound, the EC50 [5] was under 100 pM.
